{"source": "patent US12121521B2", "about": "“Uses of salt-inducible kinase (SIK) inhibitors for treating osteoporosis” (The General Hospital Corporation, priority 2016, dated 2024)", "target": "T1, SIK2 (Homo sapiens, UniProt Q9H0K1)", "T1 construct": "T7 phage fusion (most kinases) or DNA tag after HEK-293 expression; purchased DiscoverX (Fremont, CA), ScanEDGE; host or cells: T7 phage in E. coli BL21-derived host, or HEK-293", "T1 sequence (Q9H0K1 whole entry, the tested form may be a part)": "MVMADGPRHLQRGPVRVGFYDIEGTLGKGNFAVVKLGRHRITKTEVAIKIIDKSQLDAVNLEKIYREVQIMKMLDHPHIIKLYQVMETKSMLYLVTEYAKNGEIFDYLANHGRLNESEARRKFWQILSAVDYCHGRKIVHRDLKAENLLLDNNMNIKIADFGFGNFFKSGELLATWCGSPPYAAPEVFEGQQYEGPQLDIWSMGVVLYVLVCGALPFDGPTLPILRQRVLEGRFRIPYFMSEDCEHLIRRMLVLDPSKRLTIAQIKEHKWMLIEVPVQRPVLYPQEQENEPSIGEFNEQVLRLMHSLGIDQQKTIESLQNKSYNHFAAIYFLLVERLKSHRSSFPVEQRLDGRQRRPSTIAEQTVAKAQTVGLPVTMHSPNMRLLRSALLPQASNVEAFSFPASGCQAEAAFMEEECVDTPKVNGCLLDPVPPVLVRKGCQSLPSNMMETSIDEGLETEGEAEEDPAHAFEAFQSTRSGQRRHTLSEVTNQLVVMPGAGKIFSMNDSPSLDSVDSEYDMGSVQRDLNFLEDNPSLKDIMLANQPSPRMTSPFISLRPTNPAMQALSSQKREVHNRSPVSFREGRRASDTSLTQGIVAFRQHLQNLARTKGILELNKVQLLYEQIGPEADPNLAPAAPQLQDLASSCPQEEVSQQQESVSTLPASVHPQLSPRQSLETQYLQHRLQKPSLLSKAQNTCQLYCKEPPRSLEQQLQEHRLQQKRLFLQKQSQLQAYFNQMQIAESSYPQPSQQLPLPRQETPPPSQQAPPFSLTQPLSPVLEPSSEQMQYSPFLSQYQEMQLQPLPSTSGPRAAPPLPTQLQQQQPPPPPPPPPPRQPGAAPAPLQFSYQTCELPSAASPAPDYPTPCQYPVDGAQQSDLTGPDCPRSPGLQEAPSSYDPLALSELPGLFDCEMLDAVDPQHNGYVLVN", "assay": "Kd determination for SIK2 (bound kinase measured by qPCR)", "type": "binding", "description": "FIGS. 5A to 5J: Small molecule SIK inhibitors regulate SOST and RANKL expression by osteocytes. (FIG. 5A) Structure of YKL-04-114 (top panel, left), YKL-05-093 (top panel, right), and YKL-05-093 Kd determination curves for SIK2 (bottom panels). For the Kd determination curves, the y-axis represents the amount of bound kinase measured by qPCR (see methods), and the x-axis represents the corresponding compound concentration in nM. (FIG. 5B) Ocy454 cells were treated with YKL-04-114 (10 μM) for the indicated times, followed by immunoblotting of whole cell lysates as indicated. (FIG. 5C) Ocy454 cells were treated with the indicated concentrations of YKL-04-114 for 60 minutes, followed by immunoblotting of whole cell lysates as indicated. […] Right: quantification of nuclear fraction (defined as nuclear/total) of HDAC4 or CRTC2. * indicates p<0.01 comparing treatment vs vehicle. […] Quantification of HDAC4 S246 phosphorylation, as assessed by densitometric analysis of immunoblots, is shown. * indicates p<0.01 comparing treatment vs vehicle. # indicates p<0.05 for the same comparison. […] (FIG. 5G) Control and SIK2/3 deficient cells were treated with YKL-05-093 (0.5 μM) for 4 hours and SOST transcript abundance was measured by RT-qPCR. (FIG. 5H) Control and CRTC2 shRNA cells were treated with PTH (1 nM) or YKL-05-093 (0.5 μM) for 4 hours and RANKL transcript abundance was measured by RT-qPCR. […]"}
{"molecule": "COc1ccc(N2C(=O)N(c3c(C)cccc3C)Cc3cnc(Nc4ccc(C5CCN(C)CC5)c(OC)c4)nc32)c(OC)c1", "note": "[YKL-05-093]", "values": [{"measurement": "Kd", "value": 7.1, "unit": "nM"}]}
